From patent US10703761B2, “Bile acid receptor modulators and methods of use thereof” (City of Hope, priority 2016, dated 2020)
Entries after “also recorded” stand apart in the source; their conditions may differ.

Key:
[1] = target: T1, FXR (Homo sapiens, UniProt Q96RI1); assay: FXR luciferase reporter assay, transient transfection with a synthetic FXR responsive reporter plasmid in HEK293 cells; assay type: cell-based
T1 construct: expressed in transfected cells; host or cells: HEK293 (transient)
T1 sequence (Q96RI1 1-486): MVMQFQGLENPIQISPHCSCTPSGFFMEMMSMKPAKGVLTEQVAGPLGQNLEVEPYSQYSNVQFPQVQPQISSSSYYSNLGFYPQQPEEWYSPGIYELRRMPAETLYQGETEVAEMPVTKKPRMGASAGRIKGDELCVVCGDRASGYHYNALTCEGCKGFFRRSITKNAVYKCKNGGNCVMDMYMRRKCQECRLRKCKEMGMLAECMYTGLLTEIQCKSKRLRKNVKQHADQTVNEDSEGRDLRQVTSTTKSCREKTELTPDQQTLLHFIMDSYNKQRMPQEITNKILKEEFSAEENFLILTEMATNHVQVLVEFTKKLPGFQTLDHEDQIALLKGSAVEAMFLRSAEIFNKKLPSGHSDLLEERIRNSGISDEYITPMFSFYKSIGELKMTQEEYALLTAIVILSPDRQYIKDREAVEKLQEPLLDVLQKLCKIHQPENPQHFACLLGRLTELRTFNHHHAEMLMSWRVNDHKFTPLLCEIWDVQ
T1 sequence (P19793 1-462 partner): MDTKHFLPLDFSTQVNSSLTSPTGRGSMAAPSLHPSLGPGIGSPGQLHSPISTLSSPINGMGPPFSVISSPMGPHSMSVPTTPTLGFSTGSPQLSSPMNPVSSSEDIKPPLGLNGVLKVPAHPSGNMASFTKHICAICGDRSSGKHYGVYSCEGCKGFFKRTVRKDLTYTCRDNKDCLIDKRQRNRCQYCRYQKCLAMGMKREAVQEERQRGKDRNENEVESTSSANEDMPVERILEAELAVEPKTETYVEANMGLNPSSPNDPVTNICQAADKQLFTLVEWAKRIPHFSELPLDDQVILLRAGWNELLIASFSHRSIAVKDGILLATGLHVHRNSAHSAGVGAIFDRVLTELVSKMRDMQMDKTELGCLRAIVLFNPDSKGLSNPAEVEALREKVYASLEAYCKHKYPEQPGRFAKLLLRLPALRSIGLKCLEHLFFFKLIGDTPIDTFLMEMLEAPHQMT
Method: Effect of berberine derivatives and γ-aminobutyric acid derivative on FXR inhibition was initially assessed using transient transfections with a synthetic FXR responsive reporter plasmid. HEK 293 Cells were treated with vehicle alone or 100 μM CDCA with or without compounds, as indicated. Results are luciferase expression normalized using the β-gal internal control.
TGR5-reporting activity was evaluated by luciferase assay. Treatments were performed in quadruplicate and normalized with β-galactosidase. HEK293 cells were transfected with FXR and RXRα, and FXRE-containing luciferase construct. Cells were treated with 10 μM of indicated compounds; luciferase was measured and normalized with β-galactosidase.
To evaluate TGR5 activity of compounds, cells were transfected 100 ng pCRE-luc reporter along with pCMV-galactosidase (10 ng) as an internal control for normalization of transfection efficiency. Plasmids were complexed with […] of Fugene 6 reagent (Promega, Madison, Wis.) in OptiMEM (Invitrogen, Carlsbad, Calif.) and cells were transfected for 18 h. The following day, cells were treated with vehicle and appropriate ligand as indicated. Luciferase and β-galactosidase activities were assayed 6 h later using Luciferase Assay System (Promega) and Galacto-Star (Applied Biosystems, Foster City, Calif.) reagents, respectively, and a MLX luminometer (Dynex Technologies, Chantilly, Va.). To evaluate the FXR activity of compounds, HEK293 cells were transfected with 25 ng of farnesoid X receptor expression plasmid (pCMX-hFXR), 25 ng of retinoid X receptor expression plasmid (pCMXhRXR), 100 ng of reporter plasmid (pEcREx6-TK-Luc), and 10 ng of pCMV-b-galactosidase as an internal control in each well, using Fugene 6 reagent. Approximately 18 h after transfection, cells were incubated for 12 h with different concentrations of each.

[2] = target: T2, FXR (Homo sapiens, UniProt Q96RI1); assay: GeneBLAzer cell-based FXR transactivation assay (FXR-UAS-bla HEK 293T cells)
T2 construct: the Gal4 DBD was fused to the LBD of FXR in this assay
T2 sequence (Q96RI1 262-486 limits assumed): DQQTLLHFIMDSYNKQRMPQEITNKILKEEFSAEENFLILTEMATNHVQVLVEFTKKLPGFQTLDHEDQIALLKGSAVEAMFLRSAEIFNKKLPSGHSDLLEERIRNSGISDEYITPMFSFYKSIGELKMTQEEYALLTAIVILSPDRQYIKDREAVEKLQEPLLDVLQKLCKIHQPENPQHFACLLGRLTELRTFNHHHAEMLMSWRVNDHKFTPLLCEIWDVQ
Method: To investigate the cellular activities of the novel berberine derivatives, we used a GeneBLAzer FXR cell-based assay, which detects the levels of a β-lactamase reporter controlled by a promoter containing the binding site of the DNA binding domain (DBD) of the GAL4 transcription factor; the Gal4 DBD was fused to the LBD of FXR in this assay. In typical test for agonists, DMSO (vehicle and negative control), 10 μM GW4064 (positive control), and titrations of GW4064, LCA or the 24 newly synthesized novel berberien derivatives analogs were mixed with GeneBLAzer FXR-UAS-bla HEK 293T cells. Reporter assays were performed after a 16 h incubation. […] For the experiments to evaluate the antagonistic activity, titrations of compounds were tested in the presence of 400 nM GW4064. […]
FXR transactivation assay was performed using GeneBLAzer FXR-UAS-bla HEK 293T cells (Invitrogen) as previously described with minor modifications. […] Plates were then incubated in the dark for 90 min at room temperature before measuring the fluorescent emissions at 460 nm and 535 nm (using excitation at 400 nm) with an Envision plate reader with bottom read capacity. […] The % Activation was calculated using Eq. 2.
[formula] […] The % Inhibition was calculated using Eq. 3. […]

| Structure (SMILES) | Inhibition of FXR activation by CDCA (FXR antagonism) ([1]; CDCA 100 μM, compounds 10 μM) | FXR activity of compound alone (agonism) ([1]; compound alone, compared with GW4064) | FXR antagonist activity in cell-based FXR transactivation assay [2] | melting point |
| --- | --- | --- | --- | --- |
| O=C(O)CCCN1C(=O)c2ccccc2C1=O [DY419] | strongly inhibited FXR activation; also recorded: activated FXR receptor to exert FXR antagonistic biological function | no effect on FXR activity | – | – |
| COc1ccc2cc3[n+](cc2c1NCc1cccc(B(O)O)c1)CCc1cc2c(cc1-3)OCO2 [DY323, Berberine-Phenylboronic Hybrid] | – | – | identified as FXR antagonists | 228.7 °C |
| COc1ccc2cc3[n+](cc2c1NCCc1ccc(O)c(O)c1)CCc1cc2c(cc1-3)OCO2 [DY322, Berberine-Dopamine Hybrid] | – | – | identified as FXR antagonists | 198.4 °C |
